Twelve compounds from US20220153732A1, “PROTEIN SECRETION INHIBITORS” (KEZAR LIFE SCIENCES, priority 2019, published 2022) can be followed below.

The term EC50 denotes the concentration needed to bring the measured effect to its halfway point.

Format in all cases: cell-based
For experiment [1], the system named is HER3-ss+4aa/Gaussia Luciferase. Kind of experiment: Dox-Induced Her3-ss-Gluc Assay. Conditions: 24 hr doxycycline induction, 293FRT/TO cells, Gaussia luciferase signal; read-out: 24 hr Dox Inducible Her3(ss + 4)Gluc 293FRT/TO: Mean IC50. An outline of the steps: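 Compounds, diluted in DMSO/media containing doxycycline, were incubated at 37° C., 5% CO2 with cells seeded one day earlier. The cells stably express HER3-ss+4aa/Gaussia luciferase under T-REx control. Where no stereochemistry is shown, data refer to the mixture of stereoisomers.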

Experiment [2] deals with IL-2-FL/Gaussia Luciferase. Kind of experiment: Dox Induced IL2-FL-Gluc Assay. Conditions: 24 hr doxycycline induction, 293FRT/TO cells, Gaussia luciferase signal; read-out: 24 hr Dox Inducible IL2FLGIuc 293FRT/TO: Mean IC50. An outline of the steps: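 Compounds were added together with doxycycline in DMSO/media and incubated at 37° C., 5% CO2. The cells were a stably selected line carrying IL-2-FL/Gaussia luciferase under T-REx inducible control. Structures drawn without stereochemistry were tested as stereoisomer mixtures.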

The subject of experiment [3] is PD1-ss+10aa/Gaussia Luciferase. Kind of experiment: Dox-Induced PD1-ss-Gluc Assay. Conditions: 24 hr doxycycline induction, 293FRT/TO cells, Gaussia luciferase signal; read-out: 24 hr Dox Inducible PD1ssGluc 293FRT/TO: Mean IC50. In short, it runs like this: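 Compounds, diluted in DMSO/media with doxycycline, were added to cells plated a day earlier and kept at 37° C under 5% CO2. The cells stably express a Gaussia luciferase construct fused to PD1-ss+10aa, induced via the T-REx system. Unassigned stereochemistry means mixture data.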

The subject of experiment [4] is human multiple myeloma cell line NCI-H929. Kind of experiment: H929 Cell Viability Assay. Conditions: read-out: 48 hr H929 Viability Celltiter-Glo: Mean EC50. On the procedure: Plates were incubated at 37° C., 5% CO2 for 48 hours. After 48 hours, Celltiter-Glo® (Promega) was added to each well and luciferase signal was quantified using Tecan Infinite M1000 Pro for cell viability determination.
For chemical structures that include one or more stereoisomers, but are illustrated without indicating stereochemistry, the assay data refers to a mixture of stereoisomers.

Experiment [5] relates to human multiple myeloma cell line U266B1. Kind of experiment: U266 Cell Viability Assay. Conditions: read-out: 48 hr U266 Viability Celltiter-Glo: Mean EC50. An outline of the steps: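 Viability measured by CellTiter-Glo luciferase signal after 48 h compound exposure (37 °C, 5% CO2) of U266B1 cells in 384-well format. Where stereochemistry is not shown, data refer to the stereoisomer mixture.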
(ATP-based viability assays read luminescence as a measure of living cells.)

The test system of experiment [6] is TNFα-FL/Gaussia Luciferase. Kind of experiment: Dox Induced TNFα-FL-Gluc Assay. The settings on record: 24 hr doxycycline induction, 293FRT/TO cells, Gaussia luciferase signal; read-out: 24 hr Dox Inducible TNFaFLGluc 293FRT/TO: Mean IC50. In short, it runs like this:
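Compounds were added in doxycycline-containing DMSO/media to cells plated the previous day and incubated at 37° C under 5% CO2. These cells stably express a TNFα-FL/Gaussia luciferase cDNA whose expression is under T-REx (Dox-inducible) control, selected with Hygromycin and Blasticidin.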

Setting [7] is: 48 hr, NCI-H929 cells, Celltiter-Glo.
The mark [8] stands for this setting: U-266, 48 hr, U266B1 cells, Celltiter-Glo.

Where two headings read alike, the source gives them in different places. Some results are limits rather than exact numbers.

Regarding `CC(C)(OCc1ccccn1)c1csc(NC(=O)c2cccn2Cc2ccncc2)n1` [Compound A257], the IC50 came out at 4.01 µM in experiment [1], 3.63 µM in experiment [2], 1.88 µM in experiment [3] and 24.8 µM in experiment [6]. The EC50 in experiment [4] (setting [7]) and in experiment [5] (setting [8]) was more than 25 µM throughout.

Turning to `O=C(Nc1nc(C2=CCN(c3ccccc3)CC2)cs1)c1cccn1Cc1ccncc1` [Compound A258], the IC50 in experiment [1] is 6.4 µM; in experiment [2], 14.5 µM; in experiment [3] it was 0.701 µM; in experiment [6] it was more than 25 µM. In addition, the values for the EC50 in experiment [4] (setting [7]) and in experiment [5] (setting [8]) were 23.8 µM and more than 25 µM, respectively.

As for `O=C(Nc1nc(C2=CCN(Cc3ccccc3)CC2)cs1)c1cccn1Cc1ccncc1` [Compound A259], the IC50 in experiment [1] was 7.11 µM; in experiment [2], 10.5 µM; in experiment [3] it was 0.516 µM; in experiment [6] it was more than 25 µM. For the same compound, the concentration for a half-maximal effect (EC50) in experiment [4] (NCI-H929, 48 h) is more than 25 µM; in experiment [5] (U-266, 48 h) it was more than 25 µM.

Consider `CC(C)(COc1ccccn1)c1csc(NC(=O)c2cccn2Cc2ccncc2)n1` [Compound A260], for which the IC50 was determined as 0.974 µM in experiment [1], 0.95 µM in experiment [2], 0.478 µM in experiment [3] and 4.61 µM in experiment [6]. Moreover, the figures for the concentration for a half-maximal effect (EC50) in experiment [4] (setting [7]) and in experiment [5] (setting [8]) were 10.9 µM and more than 25 µM, respectively.

In the case of `O=C(Nc1nc(N2CCC(c3ccccc3)CC2)cs1)c1cccn1Cc1ccncc1` [Compound A261], the IC50 in experiment [1] was 2.02 µM; in experiment [2] it was more than 25 µM; in experiment [3] it was 2.25 µM; in experiment [6], more than 25 µM. Besides, the EC50 in experiment [4] (setting [7]) and in experiment [5] (setting [8]) was more than 25 µM in each case.

With `CC(C)(CCc1ccccn1)c1csc(NC(=O)c2cccn2Cc2ccncc2)n1` [Compound A262], the IC50 turned out to be 3.14 µM in experiment [1], 3.12 µM in experiment [2], 1.46 µM in experiment [3] and 24.2 µM in experiment [6]. Further, the EC50 in experiment [4] (setting [7]) and in experiment [5] (setting [8]) was more than 25 µM throughout.

Turning to `O=C(Nc1nc(C2(OCc3ccccc3)CC2)cs1)c1cccn1Cc1ccncc1` [Compound A263, N-(4-(1-(benzyloxy)cyclopropyl)thiazol-2-yl)-1-(pyridin-4-ylmethyl)-1H-pyrrole-2-carboxamide], the IC50 in experiment [1] is 0.958 µM; in experiment [2], 1.04 µM; in experiment [3] it was 0.381 µM; in experiment [6], 5.22 µM. Further, the EC50 in experiment [4] (setting [7]) was 21.5 µM; in experiment [5] (setting [8]), more than 25 µM.

With `O=C(Nc1nc(N2CCCCC2)cs1)c1cccn1Cc1ccncc1` [Compound A264], the IC50 in experiment [1], in experiment [2], in experiment [3] and in experiment [6] was more than 25 µM in each case. Moreover, the EC50 in experiment [4] (setting [7]) and in experiment [5] (setting [8]) was more than 25 µM in each case.

As for `O=C(Nc1nc(N2CCCC(c3ccccc3)C2)cs1)c1cccn1Cc1ccncc1` (stereo not drawn) [Compound A265], the IC50 was more than 25 µM in experiment [1], 7.3 µM in experiment [2], 9.06 µM in experiment [3] and more than 25 µM in experiment [6]. Further, the half-maximal effective concentration (EC50) in experiment [4] (setting [7]) and in experiment [5] (setting [8]) was more than 25 µM throughout.

As to `O=C(Nc1nc(N2CCN(c3ccccc3)CC2)cs1)c1cccn1Cc1ccncc1` [Compound A266], the IC50 is 9 µM in experiment [1], more than 25 µM in experiment [2], 6.25 µM in experiment [3] and more than 25 µM in experiment [6]. The concentration for a half-maximal effect (EC50) in experiment [4] (setting [7]) and in experiment [5] (setting [8]) was more than 25 µM each time.

Consider `O=C(Nc1nc(N2CCc3ccccc3C2)cs1)c1cccn1Cc1ccncc1` [Compound A267], for which the IC50 in experiment [1] was more than 25 µM; in experiment [2], more than 25 µM; in experiment [3], 15.4 µM; in experiment [6], more than 25 µM. The EC50 in experiment [4] (setting [7]) and in experiment [5] (setting [8]) was more than 25 µM in each case.

Regarding `O=C(Nc1nc(C2CC(c3ccccc3)C2)cs1)c1cccn1Cc1ccncc1` (stereo not drawn) [Compound A268], the IC50 was 0.129 µM in experiment [1], 0.291 µM in experiment [2], 0.052 µM in experiment [3] and 0.821 µM in experiment [6]. Further, the EC50 in experiment [4] (setting [7]) is 7.29 µM; in experiment [5] (setting [8]), more than 25 µM.
